Assays:
NLRP3^L351P = NLRP3^L351P (Mus musculus, UniProt Q8R4B8, L351P); format: cell-based; set-up: endogenous in cells; Nlrp3 L351P Cre+ mice after tamoxifen in vivo (A14); settings: constitutively active NLRP3 inflammasome, LPS
[1] = Gout induced by intra-articular injection of MSU in rats fed ketogenic diet; format: in vivo, rat; settings: ketogenic diet 1 week
Procedure: Rats were fed a ketogenic diet for 1 week prior to the induction of gout by intra-articular injection of MSU. Blood BHB levels were measured in rats after 1 week ketogenic diet feeding, prior to injection with MSU (FIG. 21A). Knee thickness was measured daily (FIG. 21B). The increase in knee swelling relative to baseline thickness was measured 2 days after gout induction (FIG. 21C). Serum IL-1β was measured by ELISA on day 2 post-MSU injection (FIG. 21D).

NLRC4 = target: T1, NLRC4 (Mus musculus, UniProt Q3UP24); format: cell-based; settings: BMDMs infected with Salmonella typhimurium, 0, 1, 5, or 10 mM BHB
T1 construct: endogenous in cells; host or cells: mouse BMDMs infected with Salmonella typhimurium (SL1344)

[2] = due to increased clearance; literature; cited from earlier work
human monocytes = assay: Cytokine secretion from LPS stimulated human monocytes (ELISA); format: cell-based; settings: LPS (1 μg/mL) 4 h, increasing concentrations of BHB
Procedure: The cryopreserved peripheral blood monocuclear cells were used to sort CD14+ monocytes using isolation kit from Miltenyi (130-091-153). A total of 6 healthy subjects, ([…], […], person, person, […] and […]) were used for monocyte isolations. Monocytes were seeded in 6 well plates at concentration of 3 million/mL of RPMI1640 media with 10% FCS and antibiotic/antimycotic mixture and stimulated with LPS for 4 h. The supernatants were used to measure IL-1β, IL-18 and TNF using ELISA. Human peripheral blood was collected by the Health Apheresis Unit and the Clinical Core Laboratory, the National Institute on Aging-Intramural Research Program, under Human Subject Protocol #2003054 and Tissue Procurement Protocol #2003-071.

BMDMs [3] = assay: BMDM viability and proliferation (MTT assay); format: cell-based, mouse
Procedure: (§1) The BMDM proliferation in response to BHB treatment was analyzed using the MTT assay according to manufacturer's instructions. The BMDM were incubated with Asante Potassium Green 1 (APG-1) which is a fluorescent indicator with a Kd for measuring cytosolic K+ concentration. It has non-ratiometric large fluorescence dynamic range allows sensing of even small changes in K+ concentration. Optimal excitation was recorded at 517 nm. In addition, the K+ was measured in BMDMs using an ElementXR or Agilent 7700 Inductively Coupled Mass Spectrometry (ICP-MS) using previously described methods (Muñoz-Planillo et al., 2013, Immunity 38:1142-1153). For error analysis, samples and standard solutions were run in duplicate.

BMDMs [4] = assay: Intracellular K+ measurement in BMDMs (APG-1 dye, ICP-MS); format: cell-based, mouse; settings: LPS primed BMDMs
Procedure: as §1

AIM2 inflammasome = AIM2 inflammasome (Mus musculus, UniProt Q91VJ1); format: cell-based
NLRP3 inflammasome = NLRP3 inflammasome (Mus musculus, UniProt Q8R4B8); assay: NLRP3 inflammasome activation in LPS primed BMDMs (caspase-1 / IL-1β immunoblot); format: cell-based; set-up: endogenous in cells; host or cells: mouse bone marrow derived macrophages (A1)
Procedure: All steps were performed using sterile technique. Femurs were collected in RPMI (Life Technologies, Grand Island, N.Y.)+5% FBS (R5; Omega Scientific, Tarzana, Calif.). Both ends of the femur were then cut and the femur was flushed with R5. The bone marrow was centrifuge at 450 g for 5 min, the supernatant was decanted and red blood cells were lysed using ACK lysis buffer (Quality Biological, Gaithersburg, Md.). After neutralization with R5, bone marrow cells were centrifuged, resuspended in 10 ml of R5 and placed into a 6 well plate. Non-adherent cells were collected the following morning. The non-adherent cells were resuspended at 4×10^6 cells/ml in media consisting of 10 ml supernatant of non-adherent cells, 7.2 ml L929 conditioned media, 6.8 ml R5 and MCSF (long/ml; R&D Systems, Minneapolis, Minn.). An additional 2 ml of fresh media was added 4 d after isolation. Non-adherent cells were collected on day 7, separated by density gradient separation using Fico/Lite (Atlanta Biologicals, Flowery Branch, Ga.) and mononuclear cells were collected. Cells were rinsed twice with Dulbecco's PBS+2% FBS, and resuspended at 1×10^6 cells/ml. Cells were treated with ultrapure LPS (Invivogen, San Diego, Calif.) alone or in combination with 5 mM ATP (Sigma, St. Louis, Mo.) or 200 μM palmitate-BSA (Sigma). The BMDMs were also primed with ultrapure lipid A (10 μg/ml; Invivogen, San Diego, Calif.), lipoteichoic acid (10 μg/ml; Invivogen), or Pam3-CSK4 (10 μg/ml; Invivogen) for 4 hour and stimulated with various NLRP3 activators (ATP 5 mM; Sigma, MSU 250 ug/ml; Invivogen, Silica; 200 ug/ml; Invivogen, sodium palmitate; 200 μM; Sigma, ceramide C6 80 μg/ml; Cayman, and sphingosine 40 μM; Cayman, Ann Arbor, Mich.) for 1 hour together with D-BHB or L-(BHB) at indicated concentration. The cell supernatants and cell lysates were collected 1 h after BHB treatment and analyzed for caspase-1 and IL-1β.
The BMDM cell lysates were prepared using RIPA buffer and immediately snap frozen in liquid nitrogen. Samples were left on ice for 1 hour with vortexing every 10 min. Samples were then centrifuge at 14,000 g for 15 min, the supernatant was collected and the protein concentration was determined using the DC Protein Assay (Bio-RAD). […] The immune complexes were visualized by incubation with horseradish peroxidase-conjugated anti-rat or anti-rabbit secondary antibody (Amersham Biosciences). Immunoreactive bands were visualized by enhanced chemiluminescence (PerkinElmer Life Sciences).

caspase-11 = assay: Non-canonical inflammasome pathway, caspase-11 immunoblot in LPS treated BMDMs; format: cell-based, mouse; settings: BMDMs treated with LPS 4 h
H3 acetylation = H3 acetylation in LPS primed BMDMs (western blot); format: cell-based, mouse; settings: LPS primed BMDMs treated with ATP and BHB 1 h
Procedure: FIG. 5, comprising FIGS. 5A-5B, depicts data from experiments examining the mechanism of BHB's anti-inflammasome effects. FIG. 5A is a representative western blot analysis of caspase-1 in BMDMs primed with LPS for 4 hours and stimulated with 2DG, AICAR, Compound C and BHB for 1 h on indicated combinations. FIG. 5B is a representative western blot examining H3 acetylation in LPS primed BMDMs treated with ATP and S- or D-BHB (R-BHB) for 1 h.
The BMDM cell lysates were prepared using RIPA buffer and immediately snap frozen in liquid nitrogen. Samples were left on ice for 1 hour with vortexing every 10 min. Samples were then centrifuge at 14,000 g for 15 min, the supernatant was collected and the protein concentration was determined using the DC Protein Assay (Bio-RAD). The immunoblot analysis was performed using previously described methods (Vandanmagsar et al., 2011, Nat. Med. 17:179-188). The immune complexes were visualized by incubation with horseradish peroxidase-conjugated anti-rat or anti-rabbit secondary antibody (Amersham Biosciences). Immunoreactive bands were visualized by enhanced chemiluminescence (PerkinElmer Life Sciences).

Sequence of NLRP3 inflammasome (Q8R4B8 whole entry): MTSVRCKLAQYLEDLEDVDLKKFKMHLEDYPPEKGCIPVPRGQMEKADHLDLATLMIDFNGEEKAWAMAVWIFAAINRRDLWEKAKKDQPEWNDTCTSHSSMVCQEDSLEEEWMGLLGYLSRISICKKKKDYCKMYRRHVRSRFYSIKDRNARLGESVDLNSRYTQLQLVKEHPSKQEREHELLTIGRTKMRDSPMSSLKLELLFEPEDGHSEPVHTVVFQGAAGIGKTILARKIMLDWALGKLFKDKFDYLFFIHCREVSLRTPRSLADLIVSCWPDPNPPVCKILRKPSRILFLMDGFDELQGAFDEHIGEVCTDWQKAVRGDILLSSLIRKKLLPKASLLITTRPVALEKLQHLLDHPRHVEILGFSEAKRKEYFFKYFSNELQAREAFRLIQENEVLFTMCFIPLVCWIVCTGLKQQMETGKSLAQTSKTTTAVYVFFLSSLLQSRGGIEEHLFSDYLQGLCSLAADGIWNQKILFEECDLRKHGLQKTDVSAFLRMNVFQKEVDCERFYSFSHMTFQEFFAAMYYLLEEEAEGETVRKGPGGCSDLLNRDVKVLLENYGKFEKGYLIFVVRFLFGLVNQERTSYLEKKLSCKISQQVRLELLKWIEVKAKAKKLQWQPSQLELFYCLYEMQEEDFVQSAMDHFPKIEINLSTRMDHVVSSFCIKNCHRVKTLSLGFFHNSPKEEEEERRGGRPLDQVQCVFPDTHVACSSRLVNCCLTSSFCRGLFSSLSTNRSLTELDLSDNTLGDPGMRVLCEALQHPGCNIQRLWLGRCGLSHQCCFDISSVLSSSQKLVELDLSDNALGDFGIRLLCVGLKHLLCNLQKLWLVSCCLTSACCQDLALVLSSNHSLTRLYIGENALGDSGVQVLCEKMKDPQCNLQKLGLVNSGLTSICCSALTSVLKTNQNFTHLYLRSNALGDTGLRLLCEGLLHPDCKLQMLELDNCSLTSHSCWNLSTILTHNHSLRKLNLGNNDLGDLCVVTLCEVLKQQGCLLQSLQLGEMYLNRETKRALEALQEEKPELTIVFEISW
T1 sequence (Q3UP24 whole entry): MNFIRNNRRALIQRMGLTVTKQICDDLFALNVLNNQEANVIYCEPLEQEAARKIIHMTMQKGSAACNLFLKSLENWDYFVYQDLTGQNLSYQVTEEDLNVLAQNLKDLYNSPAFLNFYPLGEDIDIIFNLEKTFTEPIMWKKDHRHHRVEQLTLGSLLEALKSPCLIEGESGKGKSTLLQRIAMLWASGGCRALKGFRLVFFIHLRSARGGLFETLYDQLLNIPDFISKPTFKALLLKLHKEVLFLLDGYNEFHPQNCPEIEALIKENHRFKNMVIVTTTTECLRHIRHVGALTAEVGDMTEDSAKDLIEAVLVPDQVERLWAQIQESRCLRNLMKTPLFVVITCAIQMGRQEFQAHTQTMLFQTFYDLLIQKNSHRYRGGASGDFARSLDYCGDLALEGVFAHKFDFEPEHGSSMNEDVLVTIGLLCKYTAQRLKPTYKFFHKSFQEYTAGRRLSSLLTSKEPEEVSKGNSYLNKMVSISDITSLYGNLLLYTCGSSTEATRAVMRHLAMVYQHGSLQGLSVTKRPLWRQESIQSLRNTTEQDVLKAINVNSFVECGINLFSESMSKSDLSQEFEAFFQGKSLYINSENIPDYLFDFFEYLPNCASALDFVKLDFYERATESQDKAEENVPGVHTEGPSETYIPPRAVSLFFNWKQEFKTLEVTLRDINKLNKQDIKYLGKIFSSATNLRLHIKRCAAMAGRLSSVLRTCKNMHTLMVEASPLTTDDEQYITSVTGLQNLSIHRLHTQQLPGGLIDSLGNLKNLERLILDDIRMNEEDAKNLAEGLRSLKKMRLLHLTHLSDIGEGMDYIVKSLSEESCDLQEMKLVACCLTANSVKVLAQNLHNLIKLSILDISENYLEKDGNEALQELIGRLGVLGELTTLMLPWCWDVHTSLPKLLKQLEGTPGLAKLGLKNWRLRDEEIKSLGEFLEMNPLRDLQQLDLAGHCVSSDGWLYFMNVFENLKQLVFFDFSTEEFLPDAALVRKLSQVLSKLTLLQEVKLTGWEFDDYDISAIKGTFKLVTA
Sequence of NLRP3^L351P (Q8R4B8 whole entry L351P): as the sequence (Q8R4B8 whole entry) above, with L351P counted along it
Sequence of AIM2 inflammasome (Q91VJ1 whole entry, looked up): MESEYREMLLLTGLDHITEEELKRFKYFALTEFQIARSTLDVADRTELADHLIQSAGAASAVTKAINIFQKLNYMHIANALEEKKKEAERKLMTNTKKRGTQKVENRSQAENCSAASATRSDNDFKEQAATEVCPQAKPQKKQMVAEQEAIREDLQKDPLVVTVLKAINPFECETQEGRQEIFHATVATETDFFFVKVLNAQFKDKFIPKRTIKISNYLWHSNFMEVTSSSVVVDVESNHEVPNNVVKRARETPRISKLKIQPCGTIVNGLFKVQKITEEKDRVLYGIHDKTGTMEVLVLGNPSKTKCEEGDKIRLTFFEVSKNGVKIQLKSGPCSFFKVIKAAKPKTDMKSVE

CC(O)CC(=O)O (stereo not drawn) [BHB, β-hydroxybutyrate]
ASC oligomerization in macrophages of FCAS mice (NLRP3^L351P): directly prevented
Gout-induced inflammation [1]: protect
NLRC4 mediated caspase-1 cleavage (NLRC4): did not inhibit
serum concentration after administration [2]: insufficient to achieve sustained high serum concentration
IL-1β secretion (human monocytes): dose dependently inhibited
IL-18 secretion (human monocytes): dose dependently inhibited
TNFα production (human monocytes): without significantly affecting
cellular proliferation (BMDMs [3]; 10 mM concentration): significantly increased
viability of BMDMs (BMDMs [3]; increasing concentration of BHB): did not impair
decline in intracellular K+ in response to MSU (BMDMs [4]; BHB 1 h): prevented the decline
decline in intracellular K+ in response to ATP (BMDMs [4]; BHB (10 mM)): prevented the decline
decline in intracellular K+ in response to ceramides (BMDMs [4]; C6 ceramide and BHB 1 h): prevented the decline
AIM2 inflammasome induced IL-1β activation (AIM2 inflammasome): did not inhibit
BHB's inhibitory effects on the inflammasome in macrophages lacking Atg5 (NLRP3 inflammasome; Atg5 deficient BMDMs, LPS, ATP, BHB (10 mM)): not required
ATP-induced caspase-1 activation without involvement of AMPK (NLRP3 inflammasome; BHB (10 mM) with AICAR 2 mM or Compound C 25 μM): suppressed
ATP-induced IL-1β activation without involvement of AMPK (NLRP3 inflammasome; BHB with AICAR or Compound C): suppressed
inflammasome activation after priming with Pam3-CSK4 (NLRP3 inflammasome; BMDMs primed with TLR1/2 ligand Pam3-CSK4 4 h, ATP and BHB 1 h): effectively suppressed
inflammasome activation after priming with lipoteichoic acid (LTA) (NLRP3 inflammasome; BMDMs primed with TLR2 agonist LTA 4 h, ATP and BHB 1 h): effectively suppressed
inflammasome activation after priming with lipid A (NLRP3 inflammasome; BMDMs primed with TLR4 agonist lipid A 4 h, ATP and BHB 1 h): effectively suppressed
BHB's anti-inflammasome effects in BMDMs deficient in GPR109a (NLRP3 inflammasome; Gpr109a deficient BMDMs, LPS and ATP, BHB (10, 20 mM)): could not be abrogated
processing of biologically active p17 form of IL-1β (NLRP3 inflammasome; LPS primed BMDMs, ATP and BHB for 60 minutes): dose-dependently inhibited
ATP-induced caspase-1 cleavage (NLRP3 inflammasome; LPS primed BMDMs, ATP and BHB for 60 minutes, Western blot of p20): dose-dependently inhibited
inflammasome activation by ceramides (NLRP3 inflammasome; LPS primed BMDMs, C6 ceramide 6 h (80 μg/ml)): blocked
monosodium urate (MSU) crystals induced caspase-1 activation (NLRP3 inflammasome; LPS primed BMDMs, MSU): inhibited
inflammasome activation by nigericin (NLRP3 inflammasome; LPS primed BMDMs, nigericin (10 μM) 1 h): blocked
inflammasome activation by palmitate (NLRP3 inflammasome; LPS primed BMDMs, palmitate (200 μM) 12 h): blocked
inflammasome activation by silica particles (NLRP3 inflammasome; LPS primed BMDMs, silica 1 hour): blocked
inflammasome activation by sphingosine (NLRP3 inflammasome; LPS primed BMDMs, sphingosine (50 μM) 1 h): blocked
BHB's inhibitory effects on NLRP3 activation after ablation of Sirt2 or UCP2 (NLRP3 inflammasome; Sirt2−/− or Ucp2−/− BMDMs, LPS and ATP, BHB (10 mM) 1 h): did not control
caspase-11 activation (caspase-11): neither butyrate nor BHB blocks
H3 acetylation in macrophages (H3 acetylation): inducing

From patent US20180008629A1, “Compositions and Methods for Treating NLRP3 Inflammasome-Related Diseases and Disorders” (priority 2015, published 2018)
